{
  "source": "patent US11814363B2",
  "about": "“Morphic forms of danicopan” (Achillion Pharmaceuticals, Inc., priority 2018, dated 2023)",
  "assay_type_in_all_cases": "physicochemical",
  "key": {"[1]": {"assay": "Visual solubility estimate of amorphous Compound 1 in solvents", "experimental": "The solubility of amorphous Compound 1 was estimated in 14 solvents to facilitate the solvent selection for the crystallization study. The solubility of Compound 1 was visually estimated at room temperature (RT; ˜23° C.) by dosing small aliquots of solvent into a fixed amount of solid (˜10 mg) until the dissolution point or a maximum volume (1.7 mL) was reached."}, "[2]": {"assay": "Dynamic vapor sorption (DVS) analysis"}, "[3]": {"assay": "Visual solubility estimate of amorphous Compound 1 in solvents", "settings": "40 °C, thermodynamic from solid"}, "[4]": {"assay": "Relative stability of hydrated Compound 1 forms vs water activity, PXRD", "settings": "for water activity value (aw) at which the form is the stable hydrate: 25° C.", "experimental": "The relative stability of hydrated Compound 1 Form II, Form IV, and Form V were studied at 25° C. and the results are shown in Table 6. […] Form V was determined to be the stable hydrate at aw=0.75, with […] the stable hydrate at aw=0.90. The water activity of the solvent mixture used for the crystallization process must be below 0.55 in order to obtain Form II consistently."}, "[5]": {"assay": "Physical stability of crystal forms on heating, drying or storage, PXRD"}, "[6]": {"settings": "102097-CR6, 2-propanol: 20 vol % Water, water activity 0.9"}, "[7]": {"settings": "CR5, Acetonitrile: 10 vol % Water, water activity 0.75"}},
  "note": "Where two headings read alike, the source gives them in different places.",
  "data": [
    {"compound": "CC(=O)c1nn(CC(=O)N2C[C@H](F)C[C@H]2C(=O)Nc2cccc(Br)n2)c2ccc(-c3cnc(C)nc3)cc12", "note": "[Amorphous Compound 1]", "values": [
      {"measurement": "solubility", "setting": "[1]; 1,4-dioxane, 23 °C, organic solvent or mixture, thermodynamic from solid, 1,4-Dioxane, RT (~23° C.), visually estimated, read-out: Solubility at RT", "result": "98 to 392", "unit": "mg/mL"},
      {"measurement": "solubility", "setting": "[1]; 2-propanol, 23 °C, organic solvent or mixture, thermodynamic from solid, 2-Propanol, RT (~23° C.), visually estimated, read-out: Solubility at RT", "result": "< 5.71", "unit": "mg/mL"},
      {"measurement": "solubility", "setting": "[1]; 2-propanol, 40 °C, organic solvent or mixture, thermodynamic from solid, 2-Propanol, 40° C., read-out: Solubility at 40° C.", "result": "> 5.71", "unit": "mg/mL"},
      {"measurement": "Solubility at RT", "setting": "[1]; Dimethyl Sulfoxide, RT (~23° C.), visually estimated", "result": ">452", "unit": "mg/mL"},
      {"measurement": "Solubility at RT", "setting": "[1]; Heptane, RT (~23° C.), visually estimated", "result": "<5.59", "unit": "mg/mL"},
      {"measurement": "Solubility at RT", "setting": "[1]; Water, RT (~23° C.), visually estimated", "result": "<5.59", "unit": "mg/mL"},
      {"measurement": "solubility", "setting": "[1]; acetone, 23 °C, organic solvent or mixture, thermodynamic from solid, Acetone, RT (~23° C.), visually estimated, read-out: Solubility at RT", "result": "121 to 484", "unit": "mg/mL"},
      {"measurement": "solubility", "setting": "[1]; acetonitrile, 23 °C, organic solvent or mixture, thermodynamic from solid, Acetonitrile, RT (~23° C.), visually estimated, read-out: Solubility at RT", "result": "98 to 392", "unit": "mg/mL"},
      {"measurement": "solubility", "setting": "[1]; chloroform, 23 °C, organic solvent or mixture, thermodynamic from solid, Chloroform, RT (~23° C.), visually estimated, read-out: Solubility at RT", "result": "92 to 368", "unit": "mg/mL"},
      {"measurement": "solubility", "setting": "[1]; dichloromethane, 23 °C, organic solvent or mixture, thermodynamic from solid, Dichloromethane, RT (~23° C.), visually estimated, read-out: Solubility at RT", "result": "99 to 396", "unit": "mg/mL"},
      {"measurement": "solubility", "setting": "[1]; dimethyl sulfoxide, 23 °C, organic solvent or mixture, thermodynamic from solid, Dimethyl Sulfoxide, RT (~23° C.), visually estimated, read-out: Solubility at RT", "result": "> 452", "unit": "mg/mL"},
      {"measurement": "solubility", "setting": "[1]; ethyl acetate, 23 °C, organic solvent or mixture, thermodynamic from solid, Ethyl Acetate, RT (~23° C.), visually estimated, read-out: Solubility at RT", "result": "91 to 364", "unit": "mg/mL"},
      {"measurement": "solubility", "setting": "[1]; heptane, 23 °C, organic solvent or mixture, thermodynamic from solid, Heptane, RT (~23° C.), visually estimated, read-out: Solubility at RT", "result": "< 6", "unit": "mg/mL"},
      {"measurement": "solubility", "setting": "[1]; methanol, 23 °C, organic solvent or mixture, thermodynamic from solid, Methanol, RT (~23° C.), visually estimated, read-out: Solubility at RT", "result": "48 to 96", "unit": "mg/mL"},
      {"measurement": "Solubility at RT", "setting": "[1]; t-Butyl Methyl Ether (MTBE), RT (~23° C.), visually estimated", "result": "<5.71", "unit": "mg/mL"},
      {"measurement": "solubility", "setting": "[1]; t-butyl methyl ether (MTBE), 23 °C, organic solvent or mixture, thermodynamic from solid, t-Butyl Methyl Ether (MTBE), RT (~23° C.), visually estimated, read-out: Solubility at RT", "result": "< 6", "unit": "mg/mL"},
      {"measurement": "solubility", "setting": "[1]; tetrahydrofuran, 23 °C, organic solvent or mixture, thermodynamic from solid, Tetrahydrofuran, RT (~23° C.), visually estimated, read-out: Solubility at RT", "result": "92 to 368", "unit": "mg/mL"},
      {"measurement": "solubility", "setting": "[1]; toluene, 23 °C, organic solvent or mixture, thermodynamic from solid, Toluene, RT (~23° C.), visually estimated, read-out: Solubility at RT", "result": "< 5.35", "unit": "mg/mL"},
      {"measurement": "solubility", "setting": "[1]; toluene, 40 °C, organic solvent or mixture, thermodynamic from solid, Toluene, 40° C., read-out: Solubility at 40° C.", "result": "> 5.35", "unit": "mg/mL"},
      {"measurement": "solubility", "setting": "[1]; water, 23 °C, water, thermodynamic from solid, Water, RT (~23° C.), visually estimated, read-out: Solubility at RT", "result": "< 6", "unit": "mg/mL"},
      {"measurement": "solid form after the DVS experiment by PXRD", "setting": "[2]; after DVS 0-90% RH", "result": "remained amorphous"},
      {"measurement": "water uptake (DVS)", "setting": "[2]; from 0-90% RH", "result": 4.0, "unit": "%"},
      {"measurement": "solubility", "setting": "[3]; heptane, organic solvent or mixture", "result": "< 5.59", "unit": "mg/mL"},
      {"measurement": "solubility", "setting": "[3]; t-butyl methyl ether, organic solvent or mixture", "result": "< 5.71", "unit": "mg/mL"},
      {"measurement": "solubility", "setting": "[3]; water", "result": "< 5.59", "unit": "mg/mL"}
    ]},
    {"compound": "CC(=O)c1nn(CC(=O)N2C[C@H](F)C[C@H]2C(=O)Nc2cccc(Br)n2)c2ccc(-c3cnc(C)nc3)cc12", "note": "[Compound 1, danicopan]", "values": [
      {"measurement": "PXRD Results 4 days/RT", "setting": "[4]; [6]", "result": "Form III"},
      {"measurement": "PXRD Results 8 days/RT", "setting": "[4]; [6]", "result": "Form IH"},
      {"measurement": "PXRD Results 4 days/RT", "setting": "[4]; CR1, 2-propanol, water activity 0", "result": "Form II"},
      {"measurement": "PXRD Results 4 days/RT", "setting": "[4]; CR2, EtOAc, water activity 0", "result": "Form II"},
      {"measurement": "PXRD Results 4 days/RT", "setting": "[4]; CR3, Methanol: 10 vol % Water, water activity 0.33", "result": "Form II"},
      {"measurement": "PXRD Results 4 days/RT", "setting": "[4]; CR4, 2-propanol: 5 vol % Water, water activity 0.55", "result": "Form II"},
      {"measurement": "PXRD Results 4 days/RT", "setting": "[4]; [7]", "result": "Form V"},
      {"measurement": "PXRD Results 8 days/RT", "setting": "[4]; [7]", "result": "Form V"}
    ]},
    {"compound": "CC(=O)c1nn(CC(=O)N2C[C@H](F)C[C@H]2C(=O)Nc2cccc(Br)n2)c2ccc(-c3cnc(C)nc3)cc12", "note": "[Form III]", "values": [
      {"measurement": "crystal form after drying", "setting": "[5]; 70° C. under vacuum for 1 hour", "result": "did not change the crystal-form"},
      {"measurement": "water activity value (aw) at which the form is the stable hydrate", "setting": "[4]", "result": 0.90}
    ]},
    {"compound": "CC(=O)c1nn(CC(=O)N2C[C@H](F)C[C@H]2C(=O)Nc2cccc(Br)n2)c2ccc(-c3cnc(C)nc3)cc12", "note": "[Form II]", "values": [
      {"measurement": "crystal form by PXRD after heating past the dehydration endotherm", "setting": "[5]; heated past dehydration endotherm, returned to room temperature", "result": "does not change the crystal-form"},
      {"measurement": "water content of the hydrate by DVS", "setting": "[2]; DVS isotherm", "result": "2.7-4.0%"},
      {"measurement": "critical RH step (DVS)", "setting": "[2]; reversible hydration", "result": 30, "unit": "% RH"},
      {"measurement": "water activity value (aw) at which the form is the stable hydrate", "setting": "[4]", "result": "≤ 0.55"}
    ]},
    {"compound": "CC(=O)c1nn(CC(=O)N2C[C@H](F)C[C@H]2C(=O)Nc2cccc(Br)n2)c2ccc(-c3cnc(C)nc3)cc12", "note": "[Form IV]", "values": [
      {"measurement": "physically stable by PXRD, time", "setting": "[5]; sealed vial", "result": "at least 10 days"}
    ]},
    {"compound": "CC(=O)c1nn(CC(=O)N2C[C@H](F)C[C@H]2C(=O)Nc2cccc(Br)n2)c2ccc(-c3cnc(C)nc3)cc12", "note": "[Form VI]", "values": [
      {"measurement": "PXRD pattern after sitting overnight", "setting": "[5]; overnight on a PXRD holder, ambient", "result": "closely resembles Form V"}
    ]},
    {"compound": "CC(=O)c1nn(CC(=O)N2C[C@H](F)C[C@H]2C(=O)Nc2cccc(Br)n2)c2ccc(-c3cnc(C)nc3)cc12", "note": "[Form V]", "values": [
      {"measurement": "water activity value (aw) at which the form is the stable hydrate", "setting": "[4]", "result": 0.75}
    ]}
  ]
}
